Source: US20250127937A1, “FAP INHIBITOR” (UNIVERSITÄT HEIDELBERG, priority 2018, published 2025)

What was measured:
[1] = system: HT-1080-FAP tumor xenografts; experiment: Organ distribution ex vivo in HT-1080-FAP tumor bearing nude mice; parameters: species or system mouse
Method: (§1) For in vivo experiments, 8 week old BALB/c nu/nu mice (Charles River) were subcutaneously inoculated into the right trunk with 5×10^6 with HT-1080-FAP, Capan-2 or SK-LMS-1 cells, respectively. When the size of the tumor reached approximately 1 cm^3, the radiolabeled compound was injected via the tail vein (˜10 MBq for small-animal PET imaging; ˜1 MBq for organ distribution). PET imaging was performed up to 140 min after intravenous injection of 1 MBq of Ga-68 labeled compound per mouse using the Inveon PET small-animal PET scanner (Siemens). Images were reconstructed iteratively using the 3D-OSEM+MAP method and were converted to standardized uptake value (SUV) images. Quantification was done using a ROI technique and expressed as SUV mean. For organ distribution of Lu-177 labeled compound (approx. […] per mouse), the animals (n=3 for each time point) were sacrificed after indicated time points (from 30 min to 24 h). The distributed radioactivity was measured in all dissected organs and in blood using a γ-counter (Cobra Autogamma, Packard). The values are expressed as percentage of injected dose per gram of tissue (% ID/g).

HT-1080-FAP cells [2] = experiment: Radioligand binding and internalization in HT-1080-FAP cells; type: cell-based, human
Method: Radioligand binding studies were performed using HT-1080-FAP cells. The radiolabeled compound was added to the cell culture and incubated for different time intervals ranging from 10 min to 24 h. Competition experiments were performed by simultaneous exposure to unlabeled (10^−5 M to 10^−9M) and radiolabeled compound for 60 min. For efflux experiments, radioactive medium was removed after incubation for 60 min and replaced by non-radioactive medium for time intervals ranging from 1 to 24 h. For internalization experiments, surface bound activity was removed by incubating the cells with 1 M glycine-HCl buffer for 10 min. The radioactivity was measured using a γ-counter, normalized to 1 mio cells and calculated as percentage of applied dose (% ID).
For radioligand binding studies, cells were seeded in 6-well plates and cultivated for 48 h to a final confluence of approx. 80-90% (1.2-2 mio cells/well). The medium was replaced by 1 mL fresh medium without fetal calf serum. The radiolabeled compound was added to the cell culture and incubated for different time intervals ranging from 10 min to 24 h. Competition experiments were performed by simultaneous exposure to unlabeled (10^−5 M to 10^−9 M) and radiolabeled compound for 60 min. For efflux experiments, radioactive medium was removed after incubation for 60 min and replaced by non-radioactive medium for time intervals ranging from 1 to 24 h. In all experiments, the cells were washed with 1 mL phosphate-buffered saline pH 7.4 for 2 times and subsequently lysed with 1.4 ml lysis buffer (0.3 M NaOH, 0.2% SDS). Radioactivity was determined in a γ-counter (Cobra II, Packard), normalized to 1 mio cells and calculated as percentage of the applied dose (% ID). Each experiment was performed 3 times, and 3 repetitions per independent experiment were acquired.
For internalization experiments the cells were incubated with the radiolabeled compound for 60 min at 37° C. and 4° C. Cellular uptake was terminated by removing medium from the cells and washing 2 times with 1 mL PBS. Subsequently, cells were incubated with 1 mL of glycine-HCl (1 Min PBS, pH 2.2) for 10 min at room temperature to remove the surface bound activity. The cells were washed with 2 mL of ice-cold PBS and lysed with 1.4 mL of lysis buffer to determine the internalized fraction. For the cells incubated at 4° C., all washing and elution steps were carried out using ice-cold buffers. The radioactivity was measured using a γ-counter, normalized to 1 mio cells and calculated as percentage of applied dose (% ID).

[3] = system: HT-1080-FAP tumor xenografts; experiment: Dynamic small-animal PET, two-tissue compartment model, HT-1080-FAP xenografts; type: in vivo, mouse; details: 68Ga-FAPI-02, HT-1080-FAP
Method: as §1
For pharmakokinetic modeling the transport constant K1 and the rate constants k2-k4 were calculated using a two-tissue compartment model implemented in the PMOD software, taking into account the vascular fraction (vB), which is associated with the volume of blood exchanging with tissue in a VOI. The rate constants that describe the compartmental fluxes include k1 (binding to the receptor), k2 (detachment) as well as k3 (internalization) and k4 (efflux) in the tumor tissue. In this model the fractional volume of distribution (DV=K1/k2) is the proportion of the region of interest in which […] is distributed.

human FAP-α = human FAP-α (Homo sapiens (Human), UniProt Q12884); experiment: Competitive binding of radiolabeled compound to HT-1080-FAP cells against unlabeled compound; details: radiolabeled FAPI-01 (I-125) / FAPI-02 (Lu-177), HT-1080-FAP cells, 60 min; read-out: IC50 human FAP-α
human FAP-α, sequence (Q12884 whole entry): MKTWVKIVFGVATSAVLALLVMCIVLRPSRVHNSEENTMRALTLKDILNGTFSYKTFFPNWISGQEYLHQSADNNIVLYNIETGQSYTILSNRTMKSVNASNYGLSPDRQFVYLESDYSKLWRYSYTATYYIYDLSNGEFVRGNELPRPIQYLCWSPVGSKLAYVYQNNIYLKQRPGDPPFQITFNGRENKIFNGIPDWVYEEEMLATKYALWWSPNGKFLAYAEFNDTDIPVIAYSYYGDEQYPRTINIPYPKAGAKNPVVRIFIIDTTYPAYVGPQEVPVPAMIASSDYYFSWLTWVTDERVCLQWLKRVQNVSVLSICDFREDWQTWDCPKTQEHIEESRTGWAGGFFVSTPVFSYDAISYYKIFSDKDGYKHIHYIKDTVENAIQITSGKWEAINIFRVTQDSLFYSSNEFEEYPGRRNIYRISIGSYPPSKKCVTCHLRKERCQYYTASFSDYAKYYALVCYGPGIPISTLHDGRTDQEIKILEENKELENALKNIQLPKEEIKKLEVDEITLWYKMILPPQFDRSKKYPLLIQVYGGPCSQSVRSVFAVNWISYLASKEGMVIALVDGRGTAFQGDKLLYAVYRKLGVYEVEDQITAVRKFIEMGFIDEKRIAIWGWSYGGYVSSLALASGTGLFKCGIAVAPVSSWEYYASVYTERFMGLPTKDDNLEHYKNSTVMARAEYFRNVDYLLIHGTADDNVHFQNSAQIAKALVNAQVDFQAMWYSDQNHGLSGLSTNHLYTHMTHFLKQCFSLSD
Method: Competition experiments were performed by simultaneous exposure to unlabeled (10^−5 M to 10^−9M) and radiolabeled compound for 60 min. […] For internalization experiments, surface bound activity was removed by incubating the cells with 1 M glycine-HCl buffer for 10 min. The radioactivity was measured using a γ-counter, normalized to 1 mio cells and calculated as percentage of applied dose (% ID).
The medium was replaced by 1 mL fresh medium without fetal calf serum. […] Competition experiments were performed by simultaneous exposure to unlabeled (10^−5 M to 10^−9 M) and radiolabeled compound for 60 min. […] In all experiments, the cells were washed with 1 mL phosphate-buffered saline pH 7.4 for 2 times and subsequently lysed with 1.4 ml lysis buffer (0.3 M NaOH, 0.2% SDS). Radioactivity was determined in a γ-counter (Cobra II, Packard), normalized to 1 mio cells and calculated as percentage of the applied dose (% ID). Each experiment was performed 3 times, and 3 repetitions per independent experiment were acquired.

HT-1080-FAP cells [4] = experiment: Efflux experiments in HT-1080-FAP cells; type: cell-based, human; details: after 24 h in compound-free medium
[5] = Lu-177 labeled, 1 h after i.v., HT-1080-FAP, mean ± SD, n = 3

highest enrichment within the FAP-expressing tumor ([1]; 177Lu labeled, after 1 h): 4.5 % ID/g
Tumor uptake 1 h ([1]; HT-1080-FAP tumor bearing nude mice, 1 h, mean ± SD, n = 3): 4.5 ± 0.82 % ID/g
Tumor uptake 4 h ([1]; HT-1080-FAP tumor bearing nude mice, 4 h, mean ± SD, n = 3): 4.0 ± 0.56 % ID/g
Tumor uptake 24 h ([1]; HT-1080-FAP tumor bearing nude mice, 24 h, mean ± SD, n = 3): 1.12 ± 0.13 % ID/g
Blood uptake [1, 5]: 1.20 ± 0.178 % ID/g
Brain uptake [1, 5]: 0.06 ± 0.006 % ID/g
Heart uptake [1, 5]: 0.56 ± 0.085 % ID/g
Intestines uptake [1, 5]: 0.31 ± 0.046 % ID/g
Kidneys uptake [1, 5]: 1.60 ± 0.075 % ID/g
Liver uptake [1, 5]: 0.45 ± 0.074 % ID/g
Lungs uptake [1, 5]: 1.02 ± 0.152 % ID/g
Muscle uptake [1, 5]: 1.17 ± 0.332 % ID/g
Spleen uptake [1, 5]: 0.38 ± 0.051 % ID/g
Tumor uptake [1, 5]: 4.51 ± 0.816 % ID/g
Flux ([3]; + comp.): 0.01 ml/ccm/min
Vs (ratio of specific binding concentration to total parent at equilibrium) ([3]; + comp.): 0.18 ml/ccm
Vt (total distribution volume) ([3]; + comp.): 0.48 ml/ccm
k1 ([3]; + comp.): 0.10 ml/ccm/min
k2 ([3]; + comp.): 0.32 min⁻¹
k3 ([3]; + comp.): 0.04 min⁻¹
k4 ([3]; + comp.): 0.07 min⁻¹
vB (vascular fraction) ([3]; + comp.): 0.04 l/l
Flux ([3]; − comp.): 0.03 ml/ccm/min
Vs (ratio of specific binding concentration to total parent at equilibrium) ([3]; − comp.): 2.31 ml/ccm
Vt (total distribution volume) ([3]; − comp.): 0.87 ml/ccm
k1 ([3]; − comp.): 0.07 ml/ccm/min
k2 ([3]; − comp.): 0.13 min⁻¹
k3 ([3]; − comp.): 0.1 min⁻¹
k4 ([3]; − comp.): 0.02 min⁻¹
vB (vascular fraction) ([3]; − comp.): 0.04 l/l
IC50 (human FAP-α): 21 nM
SMILES: N#C[C@@H]1CCCN1C(=O)CNC(=O)c1ccnc2ccc(OCCCN3CCN(C(=O)CN4CCN(CC(=O)O)CCN(CC(=O)O)CCN(CC(=O)O)CC4)CC3)cc12 [FAPI-02]
activity remaining after 24 h of incubation relative to initial radioactivity (HT-1080-FAP cells [2]; 24 h incubation, FAPI-01 compared to binding after 10 min): 34%
internalized proportion of uptake (HT-1080-FAP cells [2]; Lu-177 labeled, after 60 min): 96%
uptake into FAP-α expressing cells (HT-1080-FAP cells [2]; Lu-177 labeled, after 60 min): 20.15±1.74 % ID
retention of the originally accumulated radioactivity (efflux) (HT-1080-FAP cells [4]): 12%
